In brackets after ≈: the same amount, converted by molar mass.
Test system: Histophilus somni
Experiment: minimum inhibitory concentration (MIC)
Method: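 Broth microdilution MIC (Sensititre BOPO7F bovine plate, CLSI methods) of 19 antimicrobials against field isolates of P. multocida, M. haemolytica, H. somni (deep nasopharyngeal swabs) and E. coli, Enterococcus spp. (rectal swabs) from weaned dairy heifers. Incubation 16-24 h at 35 C. MIC is the lowest concentration preventing visible growth. Values with <= or > lie at the tested range limits. Trimethoprim-sulfamethoxazole is given as the trimethoprim component of a 1:19 mixture.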

C=C[C@]1(C)C[C@@H](OC(=O)CSCCN(CC)CC)[C@]2(C)[C@H](C)CC[C@]3(CCC(=O)[C@H]32)[C@@H](C)[C@@H]1O [Tiamulin]
Conditions | minimum inhibitory concentration [µg/mL]
isolate (source animal id): 3 | 1 (≈ 2.03 µM)
isolate (source animal id): 4 | 1 (≈ 2.03 µM)
isolate (source animal id): 7 | 1 (≈ 2.03 µM)
isolate (source animal id): 14 | 2 (≈ 4.05 µM)
isolate (source animal id): 15 | 1 (≈ 2.03 µM)
isolate (source animal id): 17 | 1 (≈ 2.03 µM)
isolate (source animal id): 18 | 1 (≈ 2.03 µM)
isolate (source animal id): 20 | ≤ 0.5
isolate (source animal id): 23 | 1 (≈ 2.03 µM)
isolate (source animal id): 45 | 2 (≈ 4.05 µM)
isolate (source animal id): 53 | 2 (≈ 4.05 µM)
isolate (source animal id): 83 | 1 (≈ 2.03 µM)
isolate (source animal id): 88 | 1 (≈ 2.03 µM)
isolate (source animal id): 92 | 2 (≈ 4.05 µM)
isolate (source animal id): 93 | 1 (≈ 2.03 µM)
isolate (source animal id): 99 | 2 (≈ 4.05 µM)
isolate (source animal id): 100 | 2 (≈ 4.05 µM)
isolate (source animal id): 105 | 1 (≈ 2.03 µM)
isolate (source animal id): 107 | 2 (≈ 4.05 µM)
isolate (source animal id): 108 | 2 (≈ 4.05 µM)
isolate (source animal id): 109 | 2 (≈ 4.05 µM)
isolate (source animal id): 110 | 2 (≈ 4.05 µM)
isolate (source animal id): 117 | 1 (≈ 2.03 µM)
isolate (source animal id): 121 | 1 (≈ 2.03 µM)
isolate (source animal id): 123 | 1 (≈ 2.03 µM)
isolate (source animal id): 124 | 2 (≈ 4.05 µM)
isolate (source animal id): 127 | 1 (≈ 2.03 µM)
isolate (source animal id): 128 | 1 (≈ 2.03 µM)
isolate (source animal id): 130 | 1 (≈ 2.03 µM)
isolate (source animal id): 132 | 2 (≈ 4.05 µM)
isolate (source animal id): 135 | 1 (≈ 2.03 µM)
isolate (source animal id): 140 | 2 (≈ 4.05 µM)
isolate (source animal id): 141 | 2 (≈ 4.05 µM)
isolate (source animal id): 142 | 2 (≈ 4.05 µM)
isolate (source animal id): 144 | 2 (≈ 4.05 µM)
isolate (source animal id): 146 | 1 (≈ 2.03 µM)
isolate (source animal id): 147 | 2 (≈ 4.05 µM)
isolate (source animal id): 151 | 1 (≈ 2.03 µM)
isolate (source animal id): 153 | 2 (≈ 4.05 µM)
isolate (source animal id): 154 | 2 (≈ 4.05 µM)
isolate (source animal id): 156 | 2 (≈ 4.05 µM)
isolate (source animal id): 157 | 2 (≈ 4.05 µM)
isolate (source animal id): 176 | 4 (≈ 8.1 µM)
isolate (source animal id): 183 | 2 (≈ 4.05 µM)
isolate (source animal id): 186 | 2 (≈ 4.05 µM)
isolate (source animal id): 196 | 2 (≈ 4.05 µM)
isolate (source animal id): 198 | 1 (≈ 2.03 µM)
isolate (source animal id): 200 | 2 (≈ 4.05 µM)
isolate (source animal id): 206 | 1 (≈ 2.03 µM)
isolate (source animal id): 208 | 2 (≈ 4.05 µM)
isolate (source animal id): 210 | ≤ 0.5
isolate (source animal id): 212 | ≤ 0.5
isolate (source animal id): 215 | 2 (≈ 4.05 µM)
isolate (source animal id): 216 | 2 (≈ 4.05 µM)
isolate (source animal id): 218 | 2 (≈ 4.05 µM)
isolate (source animal id): 219 | 2 (≈ 4.05 µM)
isolate (source animal id): 224 | 2 (≈ 4.05 µM)
isolate (source animal id): 228 | 2 (≈ 4.05 µM)
isolate (source animal id): 230 | 2 (≈ 4.05 µM)
isolate (source animal id): 233 | 1 (≈ 2.03 µM)
isolate (source animal id): 238 | ≤ 0.5
isolate (source animal id): 239 | 2 (≈ 4.05 µM)
isolate (source animal id): 241 | 2 (≈ 4.05 µM)
isolate (source animal id): 242 | 2 (≈ 4.05 µM)
isolate (source animal id): 243 | 2 (≈ 4.05 µM)
isolate (source animal id): 245 | 2 (≈ 4.05 µM)
isolate (source animal id): 246 | 4 (≈ 8.1 µM)
isolate (source animal id): 247 | 2 (≈ 4.05 µM)
isolate (source animal id): 248 | 1 (≈ 2.03 µM)
isolate (source animal id): 250 | 2 (≈ 4.05 µM)
isolate (source animal id): 251 | 2 (≈ 4.05 µM)
isolate (source animal id): 252 | 4 (≈ 8.1 µM)
isolate (source animal id): 254 | 2 (≈ 4.05 µM)
isolate (source animal id): 258 | 2 (≈ 4.05 µM)
isolate (source animal id): 259 | 1 (≈ 2.03 µM)
isolate (source animal id): 262 | 1 (≈ 2.03 µM)
isolate (source animal id): 264 | ≤ 0.5
isolate (source animal id): 265 | 1 (≈ 2.03 µM)
isolate (source animal id): 266 | 1 (≈ 2.03 µM)
isolate (source animal id): 267 | 1 (≈ 2.03 µM)
isolate (source animal id): 269 | 1 (≈ 2.03 µM)
isolate (source animal id): 271 | 1 (≈ 2.03 µM)
isolate (source animal id): 272 | 1 (≈ 2.03 µM)
isolate (source animal id): 274 | 1 (≈ 2.03 µM)
isolate (source animal id): 276 | 1 (≈ 2.03 µM)
isolate (source animal id): 278 | 1 (≈ 2.03 µM)
isolate (source animal id): 280 | ≤ 0.5
isolate (source animal id): 281 | 2 (≈ 4.05 µM)
isolate (source animal id): 283 | 1 (≈ 2.03 µM)
isolate (source animal id): 288 | 1 (≈ 2.03 µM)
isolate (source animal id): 291 | 1 (≈ 2.03 µM)
isolate (source animal id): 292 | 1 (≈ 2.03 µM)
isolate (source animal id): 296 | ≤ 0.5
isolate (source animal id): 306 | 1 (≈ 2.03 µM)
isolate (source animal id): 336 | 1 (≈ 2.03 µM)
isolate (source animal id): 337 | 1 (≈ 2.03 µM)
isolate (source animal id): 341 | 1 (≈ 2.03 µM)
